In US5164300A, “Method for determining activity of retroviral protease” (Washington University, priority 1990, dated 1992):
Where a SMILES comes first, the peptide text is derived from it. [ ]: non-standard residue; d: D form. Phe(4-NO2) = N[C@@H](Cc1ccc([N+](=O)[O-])cc1)C(=O)O; Nle = CCCC[C@H](N)C(=O)O; 2Abz = Nc1ccccc1C(=O)O

Key:
HIV protease = molecular target: T1, HIV protease (HIV-1 M:B_ARV2/SF2, UniProt P03369); assay: HPLC HIV protease assay (cleavage of peptide substrates); assay type: biochemical, human immunodeficiency virus (HIV)
T1 construct: synthetic [Aba67,Aba95] homodimer (Schneider and Kent) or cloned enzyme from E. coli, interchangeably
Protocol: HPLC Assay. The HPLC HIV protease assay was conducted using either synthetic HIV protease [Schneider and Kent, Cell 54, 363-368 (1988)] in which the two Cys residues (Cys^67, Cys^95) were replaced by the isosteric α-aminobutyric acid to eliminate the complications of free sulfhydryl groups, or cloned material expressed in E. coli. In all cases examined, the cleavage patterns and inhibition results were identical. Synthetic HPLC-purified protease (0.05 mg/ml) was dissolved in assay buffer (20 mM phosphate, 20% glycerol, 0.1% CHAPS, pH 6.4). 20 μl of 0.1 mM substrate was mixed with 20 μl assay buffer and 10 μl of HIV protease stock were added and then incubated at 25° for the desired time. The reaction was stopped by the addition of 50 μl of 10% TFA. The sample was applied to a C18 HPLC column developed with 0.05% TFA for 5 min followed by a gradient of 0- 40% acetonitrile in 40 min. For inhibitor studies, 10 μl of the protease solution was preincubated at 25° for 10 min with the 20 μl of 0.1 mM inhibitor (dissolved in DMSO and diluted to 0.1 mM with assay buffer). Then 20 μl of test substrate, acetyl-Thr-Ile-Met-Met-Gln-Arg-NH2 or Abz-NF^* -6, was added in order to determine inhibition of cleavage. Reactions were stopped and cleavage rates were monitored by HPLC as above. […]
Fluorescence Assay. Fluorescence measurements on 96-well ELISA plates were made with the Titertek Fluoroskan II, version 3.1. […] Ten μl of a stock solution (0.1 mg/ml) of HIV protease was incubated with five different concentrations of Abz-NF^* -6 in a final volume of 100 μl at 37° C. with the increase in fluorescence monitored in each well every five minutes. […] A standard curve relating changes in fluorescent intensity to changes in concentration of product was used to convert fluorescence changes into molar velocities. […] Sixty μl of 10% TFA was added to stop the reaction and the amount of cleavage determined by HPLC. […] By the amount of substrate remaining, an estimated Ki allows appropriate choice of concentration ranges for the inhibitor for the fluorescence assay.

[1] = system: purified HIV protease expressed in E. coli; conditions: estimated, Nashed et al.; cited from earlier work
synthetic HIV protease = molecular target: T2, synthetic HIV protease (HIV-1 M:B_ARV2/SF2, UniProt P03369); assay: Fluorescence assay, kinetic measurements of cleavage by synthetic HIV protease; assay type: biochemical, human immunodeficiency virus (HIV)
T2 construct: homodimer
Protocol: Fluorescence Assay. Fluorescence measurements on 96-well ELISA plates were made with the Titertek Fluoroskan II, version 3.1. An excitation filter of 355 nm and an emission filter of 430 nm was used. Ten μl of a stock solution (0.1 mg/ml) of HIV protease was incubated with five different concentrations of Abz-NF^* -6 in a final volume of 100 μl at 37° C. with the increase in fluorescence monitored in each well every five minutes. A stock solution of 1 mM Abz-NF^* -6 in DMSO was used. A standard curve relating changes in fluorescent intensity to changes in concentration of product was used to convert fluorescence changes into molar velocities. In order to predetermine the concentration range for Ki determination of inhibitors, it was found convenient to do a preliminary assay by HPLC. Twenty μl of 0.1 mM inhibitor in assay buffer (pH 6.4) and 10 μl of HIV protease (stock solution of 0.05 mg/ml) were preincubated for 5-10 min at 25° C. Twenty μl of 0.1 mM Abz-NF^* -6 was added and the reaction continued for 1 hour. Sixty μl of 10% TFA was added to stop the reaction and the amount of cleavage determined by HPLC. […] By the amount of substrate remaining, an estimated Ki allows appropriate choice of concentration ranges for the inhibitor for the fluorescence assay.
The chromogenic substrates of Nashed et al., Biochem. Biophys. Res. Commun. 163, 1079-1085 (1989), had Km 's estimated to be greater than […].

## CCCC[C@H](NC(=O)[C@@H](NC(=O)c1ccccc1N)[C@@H](C)CC)C(=O)N[C@@H](Cc1ccc([N+](=O)[O-])cc1)C(=O)N[C@@H](CCC(N)=O)C(=O)N[C@@H](CCCNC(=N)N)C(N)=O [Abz-Ile-Nle-Phe(p-NO2)-Gln-Arg-NH2] (H-[2Abz]I[Nle][Phe(4-NO2)]QR-NH2)
HIV protease; analog with the Abz group at position P3, compared with Abz-NF*-6
  cleavage efficiency: dramatically reduced

## CC(C)C[C@H](NC(=O)[C@@H]1CCCN1C(=O)[C@H](Cc1ccc([N+](=O)[O-])cc1)NC(=O)[C@H](C)NC(=O)[C@H](CCC(N)=O)NC(=O)[C@H](Cc1ccccc1)NC(=O)[C@@H](N)[C@@H](C)O)C(=O)N[C@@H](CCCNC(=N)N)C(=O)N[C@@H](C)C(=O)O [H-Thr-Phe-Gln-Ala-Phe(p-NO2)-Pro-Leu-Arg-Ala-OH] (H-TFQA[Phe(4-NO2)]PLRA-OH)
[1]
  ratio Kcat /Km: ~23,000 M^-1 s^-1

## CCCC[C@H](NC(=O)[C@@H](NC(=O)[C@@H](NC(=O)c1ccccc1N)[C@@H](C)O)[C@@H](C)CC)C(=O)N[C@@H](Cc1ccc([N+](=O)[O-])cc1)C(=O)N[C@@H](CCC(N)=O)C(=O)N[C@@H](CCCNC(=N)N)C(N)=O [Abz-NF^* -6, Abz-Thr-Ile-Nle-Phe(p-NO2)-Gln-Arg-NH2] (H-[2Abz]TI[Nle][Phe(4-NO2)]QR-NH2)
HIV protease; 0.1 mM substrate, 1 hour, in the absence of inhibition
  amount of cleavage determined by HPLC: complete cleavage
Synthetic HIV protease; Lineweaver-Burk plot, velocities from the linear phase
  Km: 110 µM
Synthetic HIV protease; synthetic HIV protease
  Kcat: 2.9 s⁻¹
  Vmax: 3.45 mM-mil^-1
  ratio Kcat /Km: 26,364 M^-1 s^-1

## CCCC[C@H](NC(=O)[C@@H](NC(=O)[C@@H](NC(C)=O)[C@@H](C)O)[C@@H](C)CC)C(=O)N[C@@H](Cc1ccc([N+](=O)[O-])cc1)C(=O)N[C@@H](CCC(N)=O)C(=O)N[C@@H](CCCNC(=N)N)C(N)=O [Ac-Thr-Ile-Nle-Phe(p-NO2)-Gln-Arg-NH2] (Ac-TI[Nle][Phe(4-NO2)]QR-NH2)
HIV protease; incubation times of one hour
  cleavage under the conditions of HPLC assay: showed cleavage
